This passage reports T/C results from PubChem BioAssay AID330 (DTP/NCI, 2004).

Structures are written as SMILES. Where “and” joins values, the source holds several entries; their conditions need not be identical. Equal entries are not always repeated. Toxic doses and inconclusive results are not listed.

In this assay the test system is P388 leukemia ip, CD2F1 mice, survival T/C. Put plainly: NCI In Vivo Anticancer Drug Screen. Data for tumor model P388 Leukemia (intraperitoneal) in CD2F1 (CDF1) mice. As to conditions: endpoint: median survival time, higher = longer survival. A digest of the protocol: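 Mice carrying the transplanted tumor received test compound or vehicle. Survival was recorded in each group, and the value is the treated-group measurement divided by that of the vehicle-treated control group.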

[1] abbreviates: dose: 100.0 mg/kg/injection, schedule: Q01DX009 (ip), vehicle: saline.
[2] abbreviates: dose: 200.0 mg/kg/injection, schedule: Q01DX009 (ip), vehicle: saline.
Where [3] appears, read: dose: 60.0 mg/kg/injection, schedule: Q01DX005 (ip), vehicle: saline with Tween-80.
The mark [4] stands for this setting: dose: 120.0 mg/kg/injection, schedule: Q01DX005 (ip), vehicle: saline with Tween-80.
Setting [5] is: dose: 240.0 mg/kg/injection, schedule: Q01DX005 (ip), vehicle: saline with Tween-80.
The mark [6] stands for this setting: dose: 200.0 mg/kg/injection, schedule: Q04DX003 (ip), vehicle: saline with Tween-80.
The mark [7] stands for this setting: dose: 400.0 mg/kg/injection, schedule: Q04DX003 (ip), vehicle: saline with Tween-80.

In the case of `C=C(CC(O)(C(F)(F)F)C(F)(F)F)CC(O)(C(F)(F)F)C(F)(F)F`, the T/C is, setting by setting: (dose: 3.13 mg/kg/injection, schedule: Q01DX005 (ip), vehicle: saline with Tween-80) 102 % of control; (dose: 6.25 mg/kg/injection, schedule: Q01DX005 (ip), vehicle: saline with Tween-80) 104 % of control; (dose: 12.5 mg/kg/injection, schedule: Q01DX001 (ip), vehicle: saline with Tween-80) 99 % of control; (dose: 12.5 mg/kg/injection, schedule: Q01DX005 (ip), vehicle: saline with Tween-80) 107 % of control; (dose: 25.0 mg/kg/injection, schedule: Q01DX001 (ip), vehicle: saline with Tween-80) 99 % of control.

On to `CN(C)CCNc1ccc(CO)c2sc3ccccc3c(=O)c12`, for which the T/C is, setting by setting: (dose: 25.0 mg/kg/injection, schedule: Q01DX005 (ip), vehicle: saline with Tween-80) 93 % of control and 94 % of control; (dose: 50.0 mg/kg/injection, schedule: Q01DX005 (ip), vehicle: saline with Tween-80) 101 % of control and 114 % of control.

As for `CSC(=O)N(C)C(=O)Nc1cccc([N+](=O)[O-])c1`, the T/C (dose: 100.0 mg/kg/injection, schedule: Q04DX003 (ip), vehicle: Klucel (hydroxypropylcellulose) (HPC)) was 100 % of control; the T/C (dose: 200.0 mg/kg/injection, schedule: Q04DX003 (ip), vehicle: Klucel (hydroxypropylcellulose) (HPC)) is 99 % of control; the T/C (dose: 400.0 mg/kg/injection, schedule: Q04DX003 (ip), vehicle: Klucel (hydroxypropylcellulose) (HPC)) is 90 % of control.

For the compound `CCC1C(=O)CC(c2ccc(OC)cc2)OC1c1ccc(OC)cc1` (stereo not given), the T/C (dose: 50.0 mg/kg/injection, schedule: Q01DX009 (ip), vehicle: saline) was 88 % of control; the T/C under setting [1] was 96 % of control; the T/C under setting [2] is 99 % of control.

`O=C1CN=CN1`: the T/C is 96 % of control (dose: 60.0 mg/kg/injection, schedule: Q01DX005 (ip), vehicle: saline); 96 % of control (dose: 120.0 mg/kg/injection, schedule: Q01DX005 (ip), vehicle: saline); 102 % of control (dose: 240.0 mg/kg/injection, schedule: Q01DX005 (ip), vehicle: saline).

Consider `CCOC(=O)NC(=S)Nc1nonc1-c1ccccc1`, for which the T/C by setting is: under setting [3], 96 % of control; under setting [4], 100 % of control; under setting [5], 97 % of control.

On to `CCC1CC2CN(CCc3c([nH]c4ccccc34)C(C(=O)OC)(c3cc4c(cc3OC)N(C)C3C(O)(C(=O)OC)C(OC(C)=O)C5(CC)CCCN6CCC43C65)C2)C1` (stereo not given), for which the T/C is 124 % of control (dose: 1.0 mg/kg/injection, schedule: Q01DX001 (ip), vehicle: water); 122 % of control (dose: 2.0 mg/kg/injection, schedule: Q01DX001 (ip), vehicle: water); 153 % of control and 154 % of control (dose: 16.0 mg/kg/injection, schedule: Q01DX001 (ip), vehicle: water); 163 % of control (dose: 32.0 mg/kg/injection, schedule: Q01DX001 (ip), vehicle: water).

With `COc1ccccc1C1c2cc3c(cc2OC(C)(OC)C1C)OCO3` (stereo not given), the T/C under setting [3] was 93 % of control, the T/C under setting [4] is 90 % of control and the T/C under setting [5] was 92 % of control.

For `C[C@]12CC[C@H](OC(=O)Cc3ccc(N(CCCl)CCCl)cc3)CC1=CC[C@@H]1[C@@H]2CC[C@]2(C)C(=O)CC[C@@H]12`, the T/C (dose: 16.0 mg/kg/injection, schedule: Q03HX024 (ip), vehicle: saline) is 95 % of control; the T/C (dose: 32.0 mg/kg/injection, schedule: Q03HX008 (ip), vehicle: saline) is 90 % of control; the T/C (dose: 32.0 mg/kg/injection, schedule: Q03HX016 (ip), vehicle: saline) was 100 % of control; the T/C (dose: 32.0 mg/kg/injection, schedule: Q03HX024 (ip), vehicle: saline) is 90 % of control; the T/C (dose: 64.0 mg/kg/injection, schedule: Q01DX009 (ip), vehicle: saline) is 100 % of control; the T/C (dose: 64.0 mg/kg/injection, schedule: Q01DX009 (sc), vehicle: saline) is 104 % of control. Further, the T/C by setting is: (dose: 64.0 mg/kg/injection, schedule: Q03HX008 (ip), vehicle: saline) 109 % of control; (dose: 64.0 mg/kg/injection, schedule: Q03HX016 (ip), vehicle: saline) 109 % of control; (dose: 64.0 mg/kg/injection, schedule: Q03HX024 (ip), vehicle: saline) 109 % of control; (dose: 128.0 mg/kg/injection, schedule: Q01DX009 (ip), vehicle: saline) 95 % of control; (dose: 128.0 mg/kg/injection, schedule: Q01DX009 (sc), vehicle: saline) 109 % of control; (dose: 128.0 mg/kg/injection, schedule: Q03HX008 (ip), vehicle: saline) 168 % of control. The T/C reads like this: (dose: 128.0 mg/kg/injection, schedule: Q03HX016 (ip), vehicle: saline) 154 % of control; (dose: 128.0 mg/kg/injection, schedule: Q03HX024 (ip), vehicle: saline) 100 % of control; (dose: 128.0 mg/kg/injection, schedule: Q04DX003 (ip), vehicle: saline) 100 % of control; under setting [6], 150 % of control; (dose: 256.0 mg/kg/injection, schedule: Q01DX001 (ip), vehicle: saline) 100 % of control; (dose: 256.0 mg/kg/injection, schedule: Q01DX001 (sc), vehicle: saline) 100 % of control. Moreover, the T/C is, setting by setting: (dose: 256.0 mg/kg/injection, schedule: Q01DX009 (oral), vehicle: saline) 109 % of control; (dose: 256.0 mg/kg/injection, schedule: Q01DX009 (sc), vehicle: saline) 118 % of control; (dose: 256.0 mg/kg/injection, schedule: Q03HX008 (ip), vehicle: saline) 122 % of control; (dose: 256.0 mg/kg/injection, schedule: Q04DX003 (ip), vehicle: saline) 100 % of control; (dose: 256.0 mg/kg/injection, schedule: Q08DX002 (ip), vehicle: saline) 100 % of control; (dose: 264.0 mg/kg/injection, schedule: Q04DX003 (ip), vehicle: saline with Tween-80) 179 % of control. The T/C runs as follows: under setting [7], 183 % of control and 200 % of control; (dose: 512.0 mg/kg/injection, schedule: Q01DX001 (ip), vehicle: saline) 104 % of control; (dose: 512.0 mg/kg/injection, schedule: Q01DX001 (sc), vehicle: saline) 104 % of control; (dose: 512.0 mg/kg/injection, schedule: Q01DX009 (ip), vehicle: saline) 150 % of control; (dose: 512.0 mg/kg/injection, schedule: Q01DX009 (oral), vehicle: saline) 113 % of control; (dose: 512.0 mg/kg/injection, schedule: Q04DX003 (ip), vehicle: saline) 122 % of control. Besides, the T/C runs as follows: (dose: 512.0 mg/kg/injection, schedule: Q08DX002 (ip), vehicle: saline) 118 % of control; (dose: 600.0 mg/kg/injection, schedule: Q04DX003 (ip), vehicle: saline with Tween-80) 112 % of control; (dose: 1024.0 mg/kg/injection, schedule: Q01DX001 (ip), vehicle: saline) 118 % of control; (dose: 1024.0 mg/kg/injection, schedule: Q01DX001 (sc), vehicle: saline) 118 % of control; (dose: 1024.0 mg/kg/injection, schedule: Q01DX009 (oral), vehicle: saline) 109 % of control; (dose: 1024.0 mg/kg/injection, schedule: Q04DX003 (ip), vehicle: saline) 163 % of control. Further, the T/C (dose: 1024.0 mg/kg/injection, schedule: Q08DX002 (ip), vehicle: saline) was 159 % of control; the T/C (dose: 2048.0 mg/kg/injection, schedule: Q01DX001 (ip), vehicle: saline) is 109 % of control; the T/C (dose: 2048.0 mg/kg/injection, schedule: Q01DX009 (oral), vehicle: saline) is 118 % of control; the T/C (dose: 2048.0 mg/kg/injection, schedule: Q08DX002 (ip), vehicle: saline) was 90 % of control.

In the case of `NCCC(N)=O`, the T/C was 100 % of control under setting [1]; 109 % of control (dose: 100.0 mg/kg/injection, schedule: Q04DX003 (ip), vehicle: saline sonified); 95 % of control under setting [2]; 100 % of control (dose: 200.0 mg/kg/injection, schedule: Q04DX003 (ip), vehicle: saline sonified); 100 % of control (dose: 400.0 mg/kg/injection, schedule: Q01DX009 (ip), vehicle: saline); 100 % of control (dose: 400.0 mg/kg/injection, schedule: Q04DX003 (ip), vehicle: saline sonified).

In the case of `CC(=O)C(N=Nc1ccc(S(=O)(=O)Nc2ncccn2)cc1)C(C)=O`, the T/C was 92 % of control (dose: 100.0 mg/kg/injection, schedule: Q04DX003 (ip), vehicle: saline with Tween-80); 88 % of control under setting [6]; 90 % of control under setting [7].
